Laboratory results published in patent EP2141163A1, “Substituted thiazolidinones, their production and utilisation as medicine” (Bayer Schering Pharma Aktiengesellschaft, priority 2008, dated 2010).
Where two headings read alike, the source gives them in different places.

Legend:
NCI-H460 = assay: Proliferation assay (crystal violet staining), NCI-H460; assay type: cell-based, human; settings: read-out: Inhibition IC50 [M] (NCI-H460)
Description: (§1) Kultivierte humane Tumorzellen (MCF7, […] menschliche Mammakarzinomazellen, bezogen von ATCC HTB22; NCI-H460, menschliche nicht kleinzellige Lungenkarzinomazellen, ATCC HTB-177; DU 145, hormonunabhängige menschliche Prostatakarzinomazellen, ATCC HTB-81; HeLa-MaTu, humane Cervixkarzinomazellen, bezogen von EPO-GmbH, Berlin,) werden in einer Dichte von 5000 (MCF7, DU145) bzw. 3000 (NCI-H460, HeLa-MaTu) Zellen/Messpunkt in einer 96-Loch Multititerplatte in 200 µl des entsprechenden Wachstumsmediums ausplattiert. Nach 24 Stunden werden die Zellen einer Platte (Nullpunkt-Platte) mit Kristallviolett gefärbt (s.u.), während das Medium der anderen Platten durch frisches Kulturmedium (200 µl), dem die Testsubstanzen in verschiedenen Konzentrationen (0 µM, sowie im Bereich 0,01 - 30 µM; die finale Konzentration des Lösungsmittels Dimethylsulfoxid beträgt 0,5%) zugesetzt sind, ersetzt. Die Zellen werden für 4 Tage in Anwesenheit der Testsubstanzen inkubiert. Die Zellproliferation wird durch Färbung der Zellen mit Kristallviolett bestimmt: Die Zellen werden durch Zugabe von 20 µl/Messpunkt einer 11%igen Glutaraldehyd-Lösung 15 min bei Raumtemperatur fixiert. Nach dreimaligem Waschen der fixierten Zellen mit Wasser werden die Platten bei Raumtemperatur getrocknet. Die Zellen werden durch Zugabe von 100 µl/Messpunkt einer 0,1%igen Kristallviolett-Lösung (pH durch Zugabe von Essigsäure auf pH3 eingestellt) gefärbt. Nach dreimaligem Waschen der gefärbten Zellen mit Wasser werden die Platten bei Raumtemperatur getrocknet. Der Farbstoff wird durch Zugabe von 100 µl/Messpunkt einer 10%igen Essigsäure-Lösung gelöst. Die Extinktion wird photometrisch bei einer Wellenlänge von 595 nm bestimmt. Die prozentuale Änderung des Zellwachstums wird durch Normalisierung der Messwerte auf die Extinktionwerte der Nullpunktplatte (=0%) und die Extinktion der unbehandelten (0 µM) Zellen (=100%) berechnet. IC50-Werte werden nach einer 4-Parameterkurvenanpassung mit Hilfe eines Firmeneigenen Computerprogramms berechnet.

PLK-1 = molecular target: T1, PLK-1 (Homo sapiens, UniProt P53350); assay: PLK-1 enzyme assay at 10 mM ATP (indirect HTRF assay); assay type: biochemical; settings: read-out: Inhibition PLK-1 IC50 [M] (10 mM ATP)
T1 construct: Fusionsprotein bestehend aus GST und Plk (Kinase Domäne 33-345; MW 36 kDa, conc 0,8 µg/µl); GST; made in house; host or cells: Hi5 insect cells
T1 sequence (P53350 33-345): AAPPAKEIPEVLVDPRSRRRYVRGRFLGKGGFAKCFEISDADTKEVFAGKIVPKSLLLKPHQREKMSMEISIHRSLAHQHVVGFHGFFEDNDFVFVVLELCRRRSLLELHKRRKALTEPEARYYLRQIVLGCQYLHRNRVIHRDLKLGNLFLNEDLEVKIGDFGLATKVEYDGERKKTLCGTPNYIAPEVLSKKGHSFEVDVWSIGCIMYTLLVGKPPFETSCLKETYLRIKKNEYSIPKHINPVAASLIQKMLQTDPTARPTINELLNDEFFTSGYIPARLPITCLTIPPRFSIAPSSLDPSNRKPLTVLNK
Description: PLK Enzym-Assay (10 mM ATP)
Für den Kinaseassay wird aus Insektenzellen (Hi5) exprimiertes, durch Glutathion-Sepharose-Affinitätschromatographie und anschließender Gel-filtration (Suerdex 75) gereinigtes rekombinantes Fusionsprotein bestehend aus GST und Plk (Kinase Domäne 33-345; MW 36 kDa, conc 0,8 µg/µl) verwendet. Aliqots hiervon werden in flüssigem Stickstoff weggefroren und bei -80°C gelagert und nach dem Auftauen nur einmal verwendet.
Bei dem verwendeten Assay handelt es sich um einen indirekten HTRF-Assay, bei dem folgende Materialien und Verfahrensweisen zum Einsatz kamen. Als Substrat für die Kinasereaktion wird das biotinylierte Peptid Btn-Ahx-KKLNRTLSFAEPG-Amid x TFA, von Biosyntan, Probennr.: 6178.1 (C-Terminus in Amidform) verwendet. Hierbei handelt es sich um eine artifizielle Sequenz, die von keinem bekannten Protein abgeleitet wurde.
50 nl der in 100% Dimethylsulfoxid (DMSO) gelösten Testverbindungen (Endkonzentrationen : 0 µM und Konzentrationen im Bereich von 0,001 - 20 µM) werden mit 2 µl Enzym Arbeitslösung (0,039 ng/µl Plk-1 im Arbeitspuffer [25 mM MgCl2; 1mM DTT; 50 mM Hepes pH 7,0; 0,01% NP40; 1x Complete; 0,05% BSA] für 30 min vorinkubiert. Anschließend wird die Kinase-Reaktion durch Zugabe von 3 µl Substratlösung [16,7 mM Adenosintriphosphate (ATP) und 1,4 µM Substratpeptid (Biotin-Ttds- KKLNRTLSFAEPG -NH2)] in Arbeitspuffer gestartet, und nach 30 min durch Zugabe einer Abstopp-Lösung (100 mM EDTA, 100 mM Hepes pH 7,5, 800 mM Potassiumfluoride, 0,12% BSA, 0,4 µM SA-XLent (0,05 µM, von CIS bio international, Marcoule, Frankreich), Eu^3+ Cryptate-conjugated Rabbit anti-Mouse IgG (1,5 nM; ein mit Europiumkryptat markierter Anti-Maus-IgG-Antikörper von CIS bio international, Marcoule, Frankreich), 1 nM Anti-phospho-Serine Kinase (ein phospho-spezifischer Antikörper von Upstate Biotechnology, Dundee, Schottland), gestoppt, und bei 4°C über Nacht inkubiert. Danach wird die Menge des phosphorylierten Substratpeptids durch Messung des Resonanzenergietransfers vom Europium-markierten Antikörperkomplex zum Streptavidine-XLent bestimmt. Zu diesem Zweck wird die Fluoreszenzemission bei 620 nm und 665 nm nach Anregung bei 350 nm in einem HTRF-Messgerät, z. B. Rubystar (BMG Labtechnologies, Offenburg, Deutschland) oder Viewlux (Perkin-Elmer), bestimmt. Das Verhältnis der Emissionen bei 665 nm und bei 620 nm wird als Maß für die Menge des phosphorylierten Substratpeptids verwendet. Die Daten werden normalisiert (Enzymreaktion ohne Inhibitor = 0 % Inhibition, alle anderen Assaykomponenten, aber kein Enzym = 100 % Inhibition), und IC50-Werte werden durch einen 4 Parameter-Fit mit einer hauseigenen Software berechnet.

MCF-7 = assay: Proliferation assay (crystal violet staining), MCF-7; assay type: cell-based, human; settings: read-out: Inhibition IC50 [M] (MCF-7)
Description: as §1

DU145 = assay: Proliferation assay (crystal violet staining), DU145; assay type: cell-based, human; settings: read-out: Inhibition IC50 [M] (DU145)
Description: as §1

[1] = tumour cell proliferation, 4 days incubation
[2] = Homo sapiens, 96 h, tumour cell proliferation, 4 days incubation
[3] = Homo sapiens, MCF7, 96 h, tumour cell proliferation, 4 days incubation
[4] = Homo sapiens, DU-145, 96 h, tumour cell proliferation, 4 days incubation

Row | IC50 (NCI-H460; [1]) [M] | IC50 (MCF-7; [1]) [M] | IC50 (DU145; [1]) [M] | IC50 (NCI-H460; Homo sapiens, comparison with prior art (Tabelle 4)) [M] | IC50 (PLK-1; comparison with prior art (Tabelle 3)) [M] | IC50 (MCF-7; Homo sapiens, MCF7, comparison with prior art (Tabelle 4)) [M] | IC50 (DU145; Homo sapiens, DU-145, comparison with prior art (Tabelle 4)) [M] | Compound | IC50 (PLK-1) [M] | IC50 (NCI-H460; [2]) [M] | IC50 (MCF-7; [3]) [M] | IC50 (DU145; [4]) [M]
1 | 9.6e-08 | 1.4e-07 | 5.1e-08 |  |  |  |  | CCn1c(=O)c(=CNc2ccc3ccn(C4CCN(C)CC4)c3c2)s/c1=C(/C#N)C(=O)NCC(F)(F)F [B03, (Z,E/Z)-2-Cyan-2-[3-ethyl-5-[[[1-(1-methyl-4-piperidinyl)-1H-indol-6-yl]amino]methylen]-4-oxo-2-thiazolidinyliden]-N-(2,2,2-trifluorethyl)acetamid] | 1.6e-09 |  |  | 
2 |  |  |  |  |  |  |  | CCn1c(=C(C#N)C(=O)NCC(F)(F)F)sc(=CNc2ccc3c(c2)c(CCN(C)C)cn3C)c1=O [B39] | 6.1e-09 | 4.8e-07 | 3.8e-07 | 1.8e-07
3 |  |  |  |  |  |  |  | CCn1c(=C(C#N)C(=O)NCC#N)sc(=CNc2ccc3cnn(C4CCN(C(C)C)CC4)c3c2)c1=O [B44] | 1.1e-09 | 4.9e-07 | 2e-07 | 1.1e-07
4 |  |  |  |  |  |  |  | CCn1c(=C(C#N)C(=O)NC(C)(C)CO)sc(=CNc2ccc3ccn(C4CCN(C)CC4)c3c2)c1=O [B06] | 1e-08 | 1.5e-07 | 2.4e-07 | 1.2e-07
5 |  |  |  |  |  |  |  | CCn1c(=C(C#N)C(=O)NCC(F)(F)F)sc(=CNc2ccc3ccn(CCN4CCCC4)c3c2)c1=O [B132] | 3.3e-09 | 4e-07 | 4.5e-07 | 2.2e-07
6 |  |  |  |  |  |  |  | CCn1c(=O)c(=CNc2ccc3c(C4CCN(C)CC4)cn(C)c3c2)s/c1=C(/C#N)C(=O)NCC#N [B130] | 1e-09 | 3.7e-07 | 1.4e-07 | 8.4e-08
7 |  |  |  |  |  |  |  | CCn1c(=O)c(=CNc2ccc3c(Cl)cn([C@H]4CC[C@H](N(C)C)CC4)c3c2)s/c1=C(/C#N)C(=O)NCC#N [B165] | 1.3e-09 | 6.1e-07 | 1.7e-07 | 1.8e-07
8 |  |  |  |  |  |  |  | CCn1c(=O)c(=CNc2ccc3ccn([C@H]4CCCC[C@H]4N(C)C)c3c2)s/c1=C(/C#N)C(=O)NCC#N (relative stereo) [B193] | 1.4e-08 | 2.6e-07 | 1.8e-07 | 1.8e-07
9 |  |  |  |  |  |  |  | CCn1c(=O)c(=CNc2ccc3c(c2)c(C2CCN(C4CC4)CC2)cn3C)s/c1=C(/C#N)C(=O)NCC(F)(F)F [B123] | 1.2e-08 | 5e-07 | 6.2e-07 | 2.3e-07
10 |  |  |  |  |  |  |  | CCn1c(=C(C#N)C(=O)NCC#N)sc(=CNc2ccc3ccn(C4CCN(C)CC4)c3c2)c1=O [B04] | 2.9e-09 | 1.4e-07 | 7.2e-08 | 2.9e-08
11 |  |  |  |  |  |  |  | CCn1c(=C(C#N)C(=O)NCC#N)sc(=CNc2ccc3c(c2)c(C2CCN(C4CC4)CC2)cn3C)c1=O [B115] | 1.3e-09 | 1.3e-07 | 1.1e-07 | 3.7e-08
12 |  |  |  |  |  |  |  | CCCN1CCC(c2cn(CC)c3ccc(NC=c4sc(=C(C#N)C(=O)NCC#N)n(CC)c4=O)cc23)CC1 [B109] | 3.5e-09 | 1.6e-07 | 1.4e-07 | 5.4e-08
13 |  |  |  |  |  |  |  | CCn1c(=O)c(=CNc2ccc3c(c2)c(CCN2CCCC2)cn3C)s/c1=C(/C#N)C(=O)NCC(F)(F)F [B35] | 5.9e-09 | 3.3e-07 | 6.4e-07 | 1.8e-07
14 |  |  |  |  |  |  |  | CCn1c(=O)c(=CNc2ccc3c(C(=O)C(C)(C)C)cn(C4CCN(C)CC4)c3c2)s/c1=C(/C#N)C(=O)NCC#N [B183] | 4.2e-09 | 3.2e-07 | 1.6e-07 | 1.3e-07
15 |  |  |  |  |  |  |  | CCn1c(=C(C#N)C(=O)NCC(F)(F)F)sc(=CNc2ccc3ccn(CC(=O)N(C)C)c3c2)c1=O [B80] | 4.9e-08 | 8.9e-07 | 3.1e-07 | 5.1e-07
16 |  |  |  |  |  |  |  | CCn1c(=O)c(=CNc2ccc3ccn(C4CCN(C)CC4)c3c2)s/c1=C(/C#N)C(=O)NC(c1ccco1)C(F)(F)F (centres unmarked) [B176] | 6.2e-08 | 3.9e-07 | 1.2e-07 | 2.1e-07
17 |  |  |  |  |  |  |  | CCn1c(=O)c(=CNc2ccc3ccn(C4CC(C)(C)N(C)C(C)(C)C4)c3c2)s/c1=C(/C#N)C(=O)NCC#N [B162] | 3.7e-09 | 3.7e-08 | 1.4e-07 | 3.5e-08
18 |  |  |  |  |  |  |  | CCn1c(=C(C#N)C(=O)NCC#N)sc(=CNc2ccc3cn(C4CCN(C(C)C)CC4)nc3c2)c1=O [B102] | 2.2e-08 | 6.2e-07 | 1.9e-07 | 2.8e-07
19 |  |  |  |  |  |  |  | CCn1c(=C(C#N)C(=O)NCC(F)(F)F)sc(=CNc2ccc3ccn(C4CCN(CC(=O)OC)CC4)c3c2)c1=O [B72] | 3.9e-09 | 1.1e-07 | 1.2e-07 | 1.2e-07
20 |  |  |  | 9e-07 | 1.1e-07 | 7e-07 | 6e-07 | CCn1c(=C(C#N)C(=O)NCC(F)(F)F)sc(=CNc2cccc(CCN3CCCC3)c2)c1=O [Beispiel 30 aus PCT/EP2005/013418, reference compound] |  |  |  | 
21 |  |  |  |  |  |  |  | CCn1c(=O)c(=CNc2ccc3c(Cl)cn(C4CCN(C)CC4)c3c2)s/c1=C(/C#N)C(=O)NCC#N [B153] | 1e-09 | 5.9e-07 | 4.2e-07 | 1.4e-07
22 |  |  |  |  |  |  |  | CCn1c(=O)c(=CNc2ccc3c(CN4CCCCC4)cn(C)c3c2)s/c1=C(/C#N)C(=O)NCC#N [B08] | 5.4e-09 | 3.3e-07 | 6.1e-07 | 1.4e-07
23 |  |  |  |  |  |  |  | CCn1c(=O)c(=CNc2ccc3c(c2)c(C2CCN(C)CC2)cn3C)s/c1=C(/C#N)C(=O)NCC(F)(F)F [B118, (Z,E/Z)-2-Cyan-2-[3-ethyl-5-[[[1-methyl-3-(1-methyl-4-piperidinyl)-1H-indol-5-yl]amino]methylen]-4-oxo-2-thiazolidinyliden]-N-(2,2,2-trifluorethyl)acetamid] | 2.1e-09 | 1.7e-07 | 2.9e-07 | 8.5e-08
24 |  |  |  |  |  |  |  | CCn1c(=C(C#N)C(=O)NCC(F)(F)F)sc(=CNc2ccc3c(c2)N(C2CCN(C)CC2)CC3)c1=O [B01] | 5.7e-09 | 1.9e-07 | 4.4e-07 | 1.3e-07
25 |  |  |  |  |  |  |  | CCn1c(=C(C#N)C(=O)NCC(F)(F)F)sc(=CNc2ccc3ccn(C4CCOCC4)c3c2)c1=O [B59] | 3.7e-08 | 1.8e-07 | 3.9e-07 | 1.7e-07
26 |  |  |  |  |  |  |  | CCn1c(=O)c(=CNc2ccc3ncn(C4CCN(C)CC4)c3c2)s/c1=C(/C#N)C(=O)NCC(F)(F)F [B147] | 3.1e-09 | 2.4e-07 | 2.4e-07 | 1.3e-07
